Like-named read-outs stand apart in the source and are kept apart here.
Columns and labels:
[1] = molecular target: T1, DENV2 NS2B/NS3pro (Dengue virus type 2, UniProt P14340); experiment: biochemical
[2] = molecular target: T2, YFV NS2B/NS3pro (Yellow fever virus, UniProt Q1X881); experiment: biochemical
[3] = molecular target: T3, WNV NS2B/NS3pro (West Nile virus, UniProt P06935); experiment: biochemical; assay type: biochemical
[4] = molecular target: T4, ZIKV NS2B/NS3pro (Zika virus, UniProt A0A024B7W1); experiment: biochemical
T4 sequence (A0A024B7W1 1421-1467): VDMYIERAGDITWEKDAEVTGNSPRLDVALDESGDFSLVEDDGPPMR
T4 sequence (A0A024B7W1 1503-1672): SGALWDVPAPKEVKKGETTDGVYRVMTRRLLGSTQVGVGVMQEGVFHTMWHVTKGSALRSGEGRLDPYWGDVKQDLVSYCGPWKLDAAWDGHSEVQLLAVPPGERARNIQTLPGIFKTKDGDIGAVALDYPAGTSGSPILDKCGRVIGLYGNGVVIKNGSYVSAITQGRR

[5] = molecular target: T1, DENV2 NS2B/NS3pro; experiment: Surface plasmon resonance dissociation constant; assay type: binding
[6] = molecular target: T2, YFV NS2B/NS3pro; experiment: biochemical; assay type: binding
[7] = molecular target: T4, ZIKV NS2B/NS3pro; experiment: Surface plasmon resonance dissociation constant; assay type: binding
[8] = molecular target: T4, ZIKV NS2B/NS3pro; conditions: Li and collaborators; cited from earlier work
[9] = molecular target: T3, WNV NS2B/NS3pro; experiment: Surface plasmon resonance dissociation constant; assay type: binding
[10] = molecular target: T1, DENV2 NS2B/NS3pro; assay type: binding
[11] = molecular target: T2, YFV NS2B/NS3pro; assay type: binding
[12] = molecular target: T4, ZIKV NS2B/NS3pro; assay type: binding

T1 sequence (P14340 1394-1440 limits assumed): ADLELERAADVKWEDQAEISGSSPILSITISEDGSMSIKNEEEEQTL
T1 sequence (P14340 1476-1660 limits assumed): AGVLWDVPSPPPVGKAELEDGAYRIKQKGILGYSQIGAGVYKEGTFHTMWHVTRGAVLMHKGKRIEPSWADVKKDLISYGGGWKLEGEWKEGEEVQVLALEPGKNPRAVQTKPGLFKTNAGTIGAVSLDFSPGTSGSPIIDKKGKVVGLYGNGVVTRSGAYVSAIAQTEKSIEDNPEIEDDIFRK
T3 sequence (P06935 1420-1465): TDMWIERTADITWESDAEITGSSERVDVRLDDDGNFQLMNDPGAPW
T3 sequence (P06935 1502-1671): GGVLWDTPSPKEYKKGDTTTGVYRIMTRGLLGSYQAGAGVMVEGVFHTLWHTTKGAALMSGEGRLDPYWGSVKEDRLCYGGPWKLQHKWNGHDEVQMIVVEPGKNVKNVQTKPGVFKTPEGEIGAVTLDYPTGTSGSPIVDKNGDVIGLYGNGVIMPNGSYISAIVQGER
T2 sequence (Q1X881 1402-1449 limits assumed): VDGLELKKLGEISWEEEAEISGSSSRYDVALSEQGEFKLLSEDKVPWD
T2 sequence (Q1X881 1491-1660 limits assumed): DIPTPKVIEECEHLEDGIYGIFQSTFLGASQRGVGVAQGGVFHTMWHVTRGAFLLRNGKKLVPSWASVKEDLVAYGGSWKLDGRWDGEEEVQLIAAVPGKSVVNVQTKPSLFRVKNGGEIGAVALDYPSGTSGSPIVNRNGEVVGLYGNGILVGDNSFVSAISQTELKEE

Row | Compound | IC50 [1] | Inhibition Mode [1] | IC50 [2] | Inhibition Mode [2] | Inhibition Mode [3] | IC50 [4] | Inhibition Mode [4] | Kd [5] | Kd [6] | Kd [7] | IC50 [8] | IC50 [3] | Kd [9] | Trp emission band after titration of the molecule (excitation shift) [10] | Trp emission band after titration of the molecule (excitation shift) [11] | Trp emission band after titration of the molecule (excitation shift) [12]
1 | O=C(O[C@@H]1Cc2c(O)cc(O)cc2O[C@@H]1c1cc(O)c(O)c(O)c1)c1cc(O)c(O)c(O)c1 [EGCG, Epigallocatechin gallate] | 6.3 ± 1 µM | Noncompetitive | 8 ± 1.4 µM | Noncompetitive | Noncompetitive | 4.5 ± 0.6 µM | Noncompetitive | 0.07 µM | 0.06 µM | 0.09 µM |  |  |  |  |  | 
2 | O=C(O[C@@H]1Cc2c(O)cc(O)cc2O[C@@H]1c1ccc(O)c(O)c1)c1cc(O)c(O)c(O)c1 [ECG, epicatechin gallate] |  |  |  |  |  |  |  |  |  |  | 89 µM |  |  |  |  | 
3 | Oc1cc(O)c2c(c1)O[C@H](c1cc(O)c(O)c(O)c1)[C@H](O)C2 [EGC, epigallocatechin] | 145 ± 3 µM | Competitive | 19 ± 1.9 µM | Competitive | Competitive | 8.9 ± 1.2 µM | Competitive | 0.03 µM | 0.27 µM | 0.02 µM |  | 17.3 ± 2.5 µM | 0.22 µM | no excitation shift | no excitation shift | no excitation shift
4 | CC(=O)Oc1cc(OC(C)=O)c2c(c1)O[C@H](c1cc(OC(C)=O)c(OC(C)=O)c(OC(C)=O)c1)[C@H](OC(=O)c1cc(OC(C)=O)c(OC(C)=O)c(OC(C)=O)c1)C2 [AcEGCG, EGCG octaacetate] | 39.8 ± 2.5 µM | Noncompetitive | 39.1 ± 2.2 µM | Noncompetitive | Noncompetitive | 102 ± 2.6 µM | Noncompetitive | 2.4 µM | 0.47 µM | 4.8 µM |  | 83.4 ± 10.4 µM | 0.98 µM | 360 nm | 360 nm | 360 nm

Source: article PMC10053286, “The Importance of Epigallocatechin as a Scaffold for Drug Development against Flaviviruses” (Pharmaceutics, 2023)
